# Assays:
# Type in all cases: in vivo
# [1] = system: rat femur; assay: Neo-osteogenesis action in rat femur; details: female SD rats, one week after administration
# Experimental: Eight weeks old female SD rats (Charles River Japan) were fixed in the side lying position under triple anesthesia (medetomidine hydrochloride, midazolam, and butorphanol tartrate). After hair of the left femoral region was shaved with a hair clipper, and disinfection treatment was performed with 70% ethanol, an in situ-solidified gel solution of a test compound, specifically, a test compound dissolved in poly(lactic-co-glycolic acid) (RESOMER RG502H, produced by Evonik Industries)/poly(lactic-co-glycolic acid)-polyethylene glycol block copolymer (5050 DLG mPEG 5000, produced by Lakeshore Biomaterials)/N-methyl-2-pyrroridone (produced by Wako) (weight ratio 47%/3%/50%), was filled in a 1-mL syringe, a 21G injection needle was attached to the syringe, and the needle was transdermally stabbed from the quadriceps to the periosteum near the center of the femoral diaphyseal. Then, 100 μg as the amount of the test compound, or 50 μL as the administration volume of the solution was injected between the quadriceps and the periosteum, and the injection needle was drawn out. To the rats of the control group, the aforementioned in situ-solidified gel solution alone was administered. One week after the administration of the drug solution, the triple anesthesia was given to the animals, and they were fixed in the supine position, and euthanized by bleeding. […], circumferential tissues such as muscles were removed, the bone mineral content of the whole femur was measured by using a bone mineral analyzer DCS-600EX (produced by ALOKA), then it was divided into three portions along the long axis, and the bone mineral content of the center part (diaphysis) was evaluated. The test was performed with the groups each consisting of 6 animals.
# [2] = system: rat femur closed fracture model; assay: Fracture healing-promoting action in rat femur closed fracture model; details: SD rats; for Bone union rate after 25 days (%): judged on soft X-ray images; for Maximum torque (N · cm): torsion test of femur four weeks after fracture
# Excerpt: In order to investigate fracture healing-promoting action of the compounds of the present invention, influence of injection of microspheres containing a test compound at a fracture site of a rat femur closed fracture model was confirmed.
# Thirteen weeks old female SD rats (Japan SLC) were fixed in the side lying position under triple anesthesia (medetomidine hydrochloride, midazolam, and butorphanol tartrate). After hair of a region from the left knee to the femoral region was shaved with a hair clipper, and disinfection treatment was performed with povidone-iodine listed in Japanese Pharmacopoeia (Isodine solution for animals, 20 mg of povidone-iodine listed in Japanese Pharmacopoeia in 1 mL, Meiji Seika Pharma), the skin of the knee part and the medial great muscle of the lateral part of the patella were excised, and the patella was shifted from the femoral head. A drill bit attached to a trephine was put on the intercondylar fossa of the exposed femoral head, and manually rotated to make a bore. A Kirschner wire (Mizuho Co., Ltd.) having a diameter of 1.2 mm preliminarily cut in a length of 31 mm was inserted into the medullary cavity of the femur through the bore. Then, the left femoral region was fixed on a three-point bending test jig of a small desktop universal testing machine (EZ Test, Shimadzu Corp.), and closed fracture of the femoral diaphyseal was caused by giving a dynamic load. Whether fracture was successfully introduced or not was confirmed by confirming generation of a complete transverse fracture in the femoral diaphyseal on an X-ray image obtained with a soft X-ray generator (M-100W, Softex) and a digital X-ray sensor (NX-04, RF Co., Ltd.). A microsphere suspension obtained by suspending microspheres (prepared according to the method of Preparation Example 3) containing a test compound (compound of Example 23) in a CMC solution was injected into the fracture part in a volume of 100 μL as the administration volume (containing 100 or 300 μg of the test compound). As the control group, a drug liquid obtained by suspending the microspheres not containing the aforementioned test compound in the CMC solution (100 μL) alone was administered. One, two, and three weeks after the generation of fracture, soft X-ray images were taken under isoflurane anesthesia, and the areas of the callus part in the X-ray images were quantified by using Image J. Four weeks after the generation of fracture, soft X-ray images were taken under triple anesthesia, the animals were fixed in the supine position, and euthanized by bleeding, and the left femurs were extracted. […] The femur samples were cryopreserved until implementation of a bone strength test, and torsional strength was measured on the test day by using a bone strength measurement apparatus (MZ-500S, Maruto Instrument Co., Ltd.).
# [3] = system: dog femur; assay: Neo-osteogenesis action in dog femur; details: beagle dogs, four weeks
# Experimental: In order to investigate an osteogenesis-promoting action of the compounds of the present invention, for influence of administration of microspheres containing a test compound in the vicinity of the femur of dog, osteogenesis-promoting action was evaluated by measuring new bone formed after the administration.
# Nine to eleven months old female beagle dogs ([…] LABES) were anesthetized by administration of a 1:1 mixture of ketamine hydrochloride (Ketalar 500 mg, Daiichi Sankyo Propharma Co., Ltd.) and xylazine (Selactar 2% Injection, Bayer Yakuhin, Ltd.) at a dose of about 0.5 mL/kg, and isoflurane listed in Japanese Pharmacopoeia (Elucaine, Mylan Pharmaceutical) was used for maintenance anesthesia, which was administered with an inhaler IMPAC6 (VetEquip Inc.). After hair of the femoral region of the right hind leg was shaved, and disinfection treatment was performed, 350 μL of a microsphere suspension obtained by suspending microspheres (prepared according to the method of Preparation Example 1 or 2) containing a test compound (compound of Example 23) in a CMC solution was transdermally administered around the periosteum of the femoral diaphysis by using a 1-mL injection syringe and a 21G injection needle. The doses of the test compound were 0.01, 0.1, 1.0, 10, and 100 μg/site, and the aforementioned microspheres were used in an amount corresponding to each dose. As a control group, a drug liquid obtained by suspending the microspheres not containing the test compound in 350 μL of the CMC solution alone was administered. Four weeks after the administration of the drug liquid, the animals were euthanized by bleeding under pentobarbital sodium (Somnopentyl) anesthesia. The femurs of both sides were extracted, immersed in a 10% neutral buffered formalin solution, and stored. The bone mineral content of the femur was measured by using Discovery X-ray bone density analyzer (produced by Toyo Medic). The test was performed with the groups each consisting of 4 dogs
# [4] = microspheres (Preparation Example 3) containing compound of Example 23, 100 μg injected into fracture part
# [5] = microspheres (Preparation Example 3) containing compound of Example 23, 300 μg injected into fracture part
# [6] = microspheres containing compound of Example 23, 100 μg
# [7] = microspheres containing compound of Example 23, 300 μg
structure (smiles),measurement,setting,value
"O=C(O)c1ccc(CCN2C(=O)SCCN2CC[C@@H](O)Cc2cccc(C#Cc3ccsc3)c2)s1 [Example 23, (S)-5-(2-(4-(3-Hydroxy-4-(3-(thiophen-3-ylethynyl)phenyl)butyl)-2-oxo-1,3,4-thiadiazinan-3-yl)ethyl)thiophene-2-carboxylic acid]",Bone mineral content of femur 1/3 center region (mg) Left femur (administered with compound),[1]; 100 μg test compound in in situ-solidified gel solution injected between quadriceps and periosteum,82.7 ± 6.7 mg
same,Bone mineral content of femur 1/3 center region (mg) Right femur (no administration of compound),"[1]; contralateral femur, 100 μg test compound given at left femur",58.9 ± 2.9 mg
same,Callus area (mm^2) One week after fracture,[2]; [4],5.24 ± 2.87 mm^2
same,Callus area (mm^2) Three weeks after fracture,[2]; [4],35.9 ± 6.3 mm^2
same,Callus area (mm^2) Two weeks after fracture,[2]; [4],28.6 ± 4.7 mm^2
same,Callus area (mm^2) One week after fracture,[2]; [5],6.01 ± 2.75 mm^2
same,Callus area (mm^2) Three weeks after fracture,[2]; [5],33.8 ± 6.8 mm^2
same,Callus area (mm^2) Two weeks after fracture,[2]; [5],28.9 ± 3.8 mm^2
same,Bone union rate after 25 days (%),[2]; [6],90.0%
same,Maximum torque (N · cm),[2]; [6],20.4 ± 7.1 N · cm
same,Bone union rate after 25 days (%),[2]; [7],85.7%
same,Maximum torque (N · cm),[2]; [7],26.3 ± 11.7 N · cm
same,Bone mineral content of femur 1/3 center region (g) Left femur (no administration of compound),"[3]; microspheres containing compound of Example 23, 0.01 μg/site at right femur",2.9 ± 0.4 g
same,Bone mineral content of femur 1/3 center region (g) Right femur (administered with compound),"[3]; microspheres containing compound of Example 23, 0.01 μg/site",2.9 ± 0.4 g
same,Bone mineral content of femur 1/3 center region (g) Left femur (no administration of compound),"[3]; microspheres containing compound of Example 23, 0.1 μg/site at right femur",2.6 ± 0.1 g
same,Bone mineral content of femur 1/3 center region (g) Right femur (administered with compound),"[3]; microspheres containing compound of Example 23, 0.1 μg/site",2.7 ± 0.2 g
same,Bone mineral content of femur 1/3 center region (g) Left femur (no administration of compound),"[3]; microspheres containing compound of Example 23, 1.0 μg/site at right femur",3.0 ± 0.1 g
same,Bone mineral content of femur 1/3 center region (g) Right femur (administered with compound),"[3]; microspheres containing compound of Example 23, 1.0 μg/site",4.1 ± 0.4 g
same,Bone mineral content of femur 1/3 center region (g) Left femur (no administration of compound),"[3]; microspheres containing compound of Example 23, 10 μg/site at right femur",2.8 ± 0.3 g
same,Bone mineral content of femur 1/3 center region (g) Right femur (administered with compound),"[3]; microspheres containing compound of Example 23, 10 μg/site",6.4 ± 0.7 g
same,Bone mineral content of femur 1/3 center region (g) Left femur (no administration of compound),"[3]; microspheres containing compound of Example 23, 100 μg/site at right femur",2.7 ± 0.4 g
same,Bone mineral content of femur 1/3 center region (g) Right femur (administered with compound),"[3]; microspheres containing compound of Example 23, 100 μg/site",8.2 ± 1.1 g
